Results: article PMC11084256, “Penifuranone A: A Novel Alkaloid from the Mangrove Endophytic Fungus Penicillium crustosum SCNU-F0006” (International Journal of Molecular Sciences, 2024)
Values after ≈ are worked out from the molar mass of the structure shown.

Assays:
DPPH scavenging assay = conditions: 30 min at 37 °C in the dark, read-out: Radical Scavenging Activity (IC50)
Experimental: The assay for scavenging 1,1-Diphenyl-2-picrylhydrazyl radical 2,2-Diphenyl-1-(2,4,6-trinitrophenyl)hydrazyl (DPPH free radicals) was conducted following a previously established modified protocol. The DPPH was dissolved in ethanol to prepare a 0.5 mmol/L DPPH ethanolic solution (10 mL), which was stored away from light. Subsequently, 100 μL of the DPPH solution was added to each well of a 96-well plate. The sample was prepared into an initial solution of 200 μM with ethanol, and the concentrations of the 1st to 12th wells of the 96-well plate sample group were made by the double dilution method (μM): 200,100, 50, 25, and 12.5 μM. The reaction was monitored by measuring the absorbance at 490 nm using a microplate reader (iMark, Bio-Rad, Hercules, CA, USA) after shaking the reaction for 30 min at 37 °C in the dark. The DPPH radical scavenging activity was determined by a comparison of the absorbance of the samples and a blank control. Vitamin C was used as a positive control at the same concentration as the other samples.

Colletrichum litchi Tra = assay: Antifungal MIC, broth dilution method; type: cell-based, Colletrichum litchi Trag; conditions: 72 h, means from three parallel experiments; for MIC: read-out: minimum inhibitory concentration (MIC) against Colletrichum litchi Tra
Experimental: (§1) The bioactivity test screened the following four phytopathogenic microorganisms: Fusarium oxysporum; Penicillium italicum; Banana Colletotrichum gloeosporioides; and Colletrichum litchi Trag. The minimum inhibitory concentration (MIC) was determined using the broth dilution method, with a minor modification. Fungi were removed from the refrigerator and cultured dynamically at a constant temperature in Potato Dextrose Broth at room temperature for 72 h. The fungal liquid was diluted with broth to 0.5 McFarland turbidity. The sample was prepared into an initial solution of 1 mg/mL with dimethyl sulfoxide (DMSO), and the concentrations of the 1st to 12th wells of the 96-well plate sample group were made by the double dilution method (mg/mL): 1, 0.5, 0.25, 0.125, and 0.0625. Each plate also contained a positive control (ciprofloxacin or carbendazim), as well as a sterile control and growth control (containing broth and fungal liquid, no compound). The plates were incubated at 35 °C for 72 h. The use of 10 μL of a solution with a concentration of 11 mg/mL of Esazurin added to each well of a 96-well plate, followed by incubation at 37 °C for 3 h, allowed for the observation of color changes to determine the minimum inhibitory concentration (MIC) values.

[1] = test system: Escherichia coli (ATCC 25922); assay: Antibacterial MIC, broth dilution method; type: cell-based; conditions: mean from three parallel experiments; for MIC: Escherichia coli, ATCC25922, 24 h, read-out: minimum inhibitory concentration (MIC) against Escherichia coli
Experimental: (§2) The bioactivity test screened the following four human pathogenic microorganisms: Pseudomonas aeruginosa (ATCC 9027); Salmonella typhimurium (ATCC 6539); Escherichia coli (ATCC 25922); and Staphylococcus aureus (ATCC 12598). The minimum inhibitory concentration was determined using the broth dilution method, with a minor modification. Bacteria were removed from the refrigerator and cultured dynamically at a constant temperature in a Mueller–Hinton Broth at room temperature for 24 h. The bacterial liquid was diluted with broth to 0.5 McFarland turbidity. The sample was prepared into an initial solution of 1 mg/mL with dimethyl sulfoxide (DMSO), and the concentrations of the 1st to 12th wells of the 96-well plate sample group were made by the double dilution method (mg/mL): 1, 0.5, 0.25, 0.125, and 0.0625. Each plate also contained a positive control (ciprofloxacin or carbendazim), as well as a sterile control and growth control (containing broth and bacterial liquid, no compound). The plates were incubated at 35 °C for 24 h. The use of 10 μL of a solution with a concentration of 11 mg/mL of Esazurin added to each well of a 96-well plate, followed by incubation at 37 °C for 3 h, allowed for the observation of color changes to determine the minimum inhibitory concentration (MIC) values.

[2] = test system: Salmonella typhimurium (ATCC 6539); assay: Antibacterial MIC, broth dilution method; type: cell-based; conditions: 24 h, mean from three parallel experiments; for MIC: Salmonella enterica, read-out: minimum inhibitory concentration (MIC) against Salmonella typhimurium
Experimental: as §2

[3] = test system: Staphylococcus aureus (ATCC 12598); assay: Antibacterial MIC, broth dilution method; type: cell-based; conditions: mean from three parallel experiments; for MIC: Staphylococcus aureus, ATCC12598, 24 h, read-out: minimum inhibitory concentration (MIC) against Staphylococcus aureus
Experimental: as §2

[4] = test system: Pseudomonas aeruginosa (ATCC 9027); assay: Antibacterial MIC, broth dilution method; type: cell-based; conditions: mean from three parallel experiments; for MIC: Pseudomonas aeruginosa, ATCC9027, 24 h, read-out: minimum inhibitory concentration (MIC) against Pseudomonas aeruginosa
Experimental: as §2

Fusarium oxysporum = assay: Antifungal MIC, broth dilution method; type: cell-based; conditions: 72 h, means from three parallel experiments; for MIC: Fusarium oxysporum, read-out: minimum inhibitory concentration (MIC) against Fusarium oxysporum
Experimental: as §1

Penicillium italicum = assay: Antifungal MIC, broth dilution method; type: cell-based; conditions: 72 h, means from three parallel experiments; for MIC: Penicillium italicum, read-out: minimum inhibitory concentration (MIC) against Penicillium italicum
Experimental: as §1

[5] = test system: Banana Colletotrichum gloeosporioides; assay: Antifungal MIC, broth dilution method; type: cell-based; conditions: 72 h, means from three parallel experiments; for MIC: Colletotrichum gloeosporioides, read-out: minimum inhibitory concentration (MIC) against Banana Colletotrichum gloeosporioides
Experimental: as §1

RAW 264.7 cells = assay: MTT cell viability (cytotoxicity); type: cell-based; conditions: RAW 264.7 cells
Experimental: (§3) The MTT method was utilized to assess cell viability. RAW 264.7 cells, at a concentration of 5 × 10^5 cells/mL, were plated in 96-well plates and exposed to lipopolysaccharide (LPS, at 1 μg/mL) in the presence or absence of the test compounds for a duration of 24 h. Following this, 100 μL of a 2 mg/mL MTT solution was introduced into each well, and after a 4 h incubation, the resulting formazan precipitates were dissolved in 100 μL of DMSO. The optical density was then determined at 490 nm using a microplate reader (Multiskan GO, Thermo Scientific, Waltham, MA, USA). The results were presented as the average percentage of cell viability relative to the untreated control group.

[6] = test system: NO production in LPS-stimulated RAW 264.7 cells; assay: Inhibition of LPS-stimulated NO production, Griess assay; type: cell-based; conditions: LPS (1 μg/mL)-stimulated RAW 264.7 cells
Experimental: Compounds 1–2 were evaluated for their inhibitory effects on LPS-stimulated NO production in RAW 264.7 cells using the Griess assay. The cell line RAW 264.7, obtained from the Cell Bank of the Chinese Academy of Sciences (CBCAS) in Shanghai, China, was propagated in Dulbecco’s Modified Eagle Medium (DMEM) supplemented with 10% Fetal Bovine Serum (FBS). In the logarithmic growth phase, the cells were digested with trypsin and inoculated into 96-well plates (1 × 10^5/well). After being cultured at 37 °C with 5% CO2 for 12 h, the cells were treated with DMEM containing different concentrations of compounds (0, 3.125, 6.25, 12.5, 25, 50, and 100 μM). Two hours later, the cells were treated with LPS at a concentration of […] (1 μg/mL) and incubated under standard cell culture conditions for a period of 24 h. Fifty microliters of cell supernatant was mixed with an equal volume of Griess reagent (1% anhydrous p-aminobenzene sulfonic acid and 0.1% N-1-naphthalene ethylenediamine hydrochloride in 5% concentrated phosphoric acid). Absorbance was measured with a microplate reader at 540 nm. The IC50 values were calculated using the SPSS 25.0 statistical software analysis package based on the inhibition rate of each group.

[7] = MTT cell viability (cytotoxicity); type: cell-based; conditions: mouse, RAW 264.7 cells; for IC50 at 24 h: MTT assay, read-out: cytotoxic effects on RAW 264.7 cells (IC50); for CC50 at 24 h: MTT, evaluated with cell viability at 50 μM, read-out: Cytotoxicity (CC50)
Experimental: as §3

Compound	IC50 (DPPH scavenging assay)	MIC (Colletrichum litchi Tra)	MIC (Fusarium oxysporum)	MIC (Penicillium italicum)	MIC [5]	MIC [1]	MIC [2]	MIC [3]	MIC [4]	melting point	IC50 at 24 h [7]	CC50 at 24 h [7]	further results
3-hydroxy-4-(3-hydroxyphenyl)quinolin-2(1H)-one [Compound 3]	> 200 µM	–	–	–	–	–	–	–	–	–	–	–	minimum inhibitory concentration (MIC) against Colletrichum litchi Tra (Colletrichum litchi Tra): 1000 µg/mL; minimum inhibitory concentration (MIC) against Escherichia coli ([1]; 24 h): 1000 µg/mL; minimum inhibitory concentration (MIC) against Salmonella typhimurium [2]: 1000 µg/mL; minimum inhibitory concentration (MIC) against Staphylococcus aureus ([3]; 24 h): >1000 µg/mL; minimum inhibitory concentration (MIC) against Pseudomonas aeruginosa ([4]; 24 h): 125 µg/mL; minimum inhibitory concentration (MIC) against Fusarium oxysporum (Fusarium oxysporum): 250 µg/mL; minimum inhibitory concentration (MIC) against Penicillium italicum (Penicillium italicum): 500 µg/mL; minimum inhibitory concentration (MIC) against Banana Colletotrichum gloeosporioides [5]: >1000 µg/mL; IC50 (RAW 264.7 cells; MTT assay, read-out: cytotoxic effects on RAW 264.7 cells (IC50)): < 50 µM; CC50 (RAW 264.7 cells; MTT, evaluated with cell viability at 50 μM): < 50 µM
COC(=O)Nc1nc2ccccc2[nH]1 [Carbendazim, reference compound]	–	< 30 µg/mL	< 30 µg/mL	< 30 µg/mL	< 30 µg/mL	–	–	–	–	–	–	–	–
O=C(O)c1cn(C2CC2)c2cc(N3CCNCC3)c(F)cc2c1=O [Ciprofloxacin, reference compound]	–	–	–	–	–	< 30 µg/mL	< 30 µg/mL	< 30 µg/mL	< 30 µg/mL	–	–	–	–
CC1OC(=O)C(C2CCNC3=C2C(=O)OC3C)=C1O (stereo not drawn) [Compound 1, penifuranone A]	180 µM	1000 µg/mL (≈ 3770 µM)	250 µg/mL (≈ 942 µM)	250 µg/mL (≈ 942 µM)	> 1000 µg/mL	1000 µg/mL (≈ 3770 µM)	1000 µg/mL (≈ 3770 µM)	> 1000 µg/mL	500 µg/mL (≈ 1880 µM)	156.7 to 158.2 °C	> 50 µM	> 50 µM	IC50 ([6]; 24 h): 42.2 ± 2.26 µM; IC50 ([6]; Mus musculus, RAW264.7, 24 h): 42.2 µM
CCCCCCCCCCCCCCCC(=O)OC1=C([C@@H]2CCN(C(=O)CCCCCCCCCCCCCCC)C3=C2C(=O)O[C@@H]3C)C(=O)O[C@@H]1C [Compound 1a]	> 200 µM	1000 µg/mL (≈ 1350 µM)	250 µg/mL (≈ 337 µM)	125 µg/mL (≈ 168 µM)	> 1000 µg/mL	> 1000 µg/mL	1000 µg/mL (≈ 1350 µM)	> 1000 µg/mL	125 µg/mL (≈ 168 µM)	76.6 to 77.2 °C	< 50 µM	< 50 µM	–
